Data published in patent publication US5502035A, “N-terminus modified analogs of LHRH” (Tap Holdings Inc., priority 1994, dated 1996).
Non-standard residues stand in square brackets, D forms with d. Residues, ends and D or L forms follow the SMILES beside them. *: point of attachment. dAla(benzothien-2-yl) = N[C@H](Cc1cc2ccccc2s1)C(=O)O; Tetrahydrofuroyl(2R) = O=C([C@H]1CCCO1)*; dPhe(4-Cl) = N[C@H](Cc1ccc(Cl)cc1)C(=O)O; d1Nal = N[C@H](Cc1cccc2ccccc12)C(=O)O; d2Nal = N[C@H](Cc1ccc2ccccc2c1)C(=O)O; Lys(iPr) = CC(C)NCCCC[C@H](N)C(=O)O; NMeY = CN[C@@H](Cc1ccc(O)cc1)C(=O)O; X10 = Cc1ccc(S(=O)(=O)NNC(=O)*)cc1; dCit = NC(=O)NCCC[C@@H](N)C(=O)O; d3Pal = N[C@H](Cc1cccnc1)C(=O)O; Isonicotinoyl = O=C(c1ccncc1)*; Salicyloyl = O=C(c1ccccc1O)*; Nicotinoyl = O=C(c1cccnc1)*; Tos = Cc1ccc(S(=O)(=O)*)cc1; 2Furoyl = O=C(c1ccco1)*; X1 = O=C([C@@H]1CCCO1)*; X3 = O=C([C@@H]1CCOC1)*; X7 = O=C([C@H]1CCOC1)*; azaGly = NNC(=O)O; βAla = NCCC(=O)O; Sar = CNCC(=O)O

Biological target: T1, LHRH (Rattus norvegicus, UniProt P30969)
T1 construct: endogenous in cells; host or cells: rat pituitary cells (own knowledge of the cited Haviv 1989 method)
T1 sequence (P30969 1-327): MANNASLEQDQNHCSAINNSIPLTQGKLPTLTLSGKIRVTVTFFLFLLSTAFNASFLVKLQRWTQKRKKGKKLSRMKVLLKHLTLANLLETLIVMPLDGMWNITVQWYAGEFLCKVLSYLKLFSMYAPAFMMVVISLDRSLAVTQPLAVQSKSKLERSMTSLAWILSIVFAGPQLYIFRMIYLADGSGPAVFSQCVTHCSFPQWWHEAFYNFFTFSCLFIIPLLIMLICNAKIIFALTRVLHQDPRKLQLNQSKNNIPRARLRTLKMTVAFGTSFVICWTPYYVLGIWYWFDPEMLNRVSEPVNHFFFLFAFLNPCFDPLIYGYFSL
Assay: in vitro test for LHRH antagonist potency (pA2)
Type: cell-based
Conditions: negative logarithm of the antagonist concentration required to shift the response curve produced by the agonist leuprolide to two-fold higher concentration
In short: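 Antagonism read against the agonist leuprolide on rat LHRH receptor; value is pA2, the −log of antagonist concentration that doubles the agonist concentration needed for the same response.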

| SMILES | Kb [nM] |
| --- | --- |
| CC(C)C[C@H](NC(=O)[C@@H](CCCCNC(=O)c1cccnc1)NC(=O)[C@H](Cc1ccc(O)cc1)N(C)C(=O)[C@H](CO)NC(=O)[C@@H](Cc1cccc2ccccc12)NC(=O)[C@@H](Cc1ccc(Cl)cc1)NC(=O)CN(C)C(=O)CNC(=O)c1cccnc1)C(=O)N[C@@H](CCCCNC(C)C)C(=O)N1CCC[C@H]1C(=O)N[C@H](C)C(N)=O [Example 35a, Nic-Gly-Sar-D4ClPhe-D1Nal-Ser-NMeTyr-DLys(Nic)-Leu-Lys(Isp)-Pro-DAlaNH2] (Nicotinoyl-G[Sar][dPhe(4-Cl)][d1Nal]S[NMeY][dK](Nicotinoyl)L[Lys(iPr)]P[dA]-NH2) | 0.1 |
| CC(C)C[C@H](NC(=O)[C@@H](CCCCNC(=O)c1cccnc1)NC(=O)[C@H](Cc1ccc(O)cc1)N(C)C(=O)[C@H](CO)NC(=O)[C@@H](Cc1cc2ccccc2s1)NC(=O)[C@@H](Cc1ccc(Cl)cc1)NC(=O)CN(C)C(=O)CNC(=O)c1cccnc1)C(=O)N[C@@H](CCCCNC(C)C)C(=O)N1CCC[C@H]1C(=O)N[C@H](C)C(N)=O [Example 35b, Nic-Gly-Sar-D4ClPhe-DBal-Ser-NMeTyr-DLys(Nic)-Leu-Lys(Isp)-Pro-DAlaNH2] (Nicotinoyl-G[Sar][dPhe(4-Cl)][dAla(benzothien-2-yl)]S[NMeY][dK](Nicotinoyl)L[Lys(iPr)]P[dA]-NH2) | 0.0794 |
| CC(C)C[C@H](NC(=O)[C@@H](CCCCNC(=O)c1cccnc1)NC(=O)[C@H](Cc1ccc(O)cc1)N(C)C(=O)[C@H](CO)NC(=O)[C@@H](Cc1cc2ccccc2s1)NC(=O)[C@@H](Cc1ccc(Cl)cc1)NC(=O)[C@@H](Cc1ccc2ccccc2c1)NC(=O)CCNC(=O)c1cccnc1)C(=O)N[C@@H](CCCCNC(C)C)C(=O)N1CCC[C@H]1C(=O)N[C@H](C)C(N)=O [Example 36, N-Nicotinyl-3-Aminopropionyl-D2Nal-D4ClPhe-DBal-Ser-NMeTyr-DLys(N-epsilon-Nicotinyl) -Leu-Lys(N-epsilon-Isopropyl)-Pro-DAlaNH2] ({Nicotinoyl-βAla}-[d2Nal][dPhe(4-Cl)][dAla(benzothien-2-yl)]S[NMeY][dK](Nicotinoyl)L[Lys(iPr)]P[dA]-NH2) | 0.0224 |
| CC(C)C[C@H](NC(=O)[C@@H](CCCCNC(=O)c1cccnc1)NC(=O)[C@H](Cc1ccc(O)cc1)N(C)C(=O)[C@H](CO)NC(=O)[C@@H](Cc1cccnc1)NC(=O)[C@@H](Cc1ccc(Cl)cc1)NC(=O)[C@@H](Cc1ccc2ccccc2c1)NC(=O)NNC(=O)c1ccco1)C(=O)N[C@@H](CCCCNC(C)C)C(=O)N1CCC[C@H]1C(=O)N[C@H](C)C(N)=O [Example 37a, N-(2-Furoyl)-Azagly-D2Nal-D4ClPhe-D3Pal-Ser-NMeTyr-DLys(Nic)-Leu-Lys(Isp)- Pro-DAlaNH2] (2Furoyl-[azaGly][d2Nal][dPhe(4-Cl)][d3Pal]S[NMeY][dK](Nicotinoyl)L[Lys(iPr)]P[dA]-NH2) | 0.00631 |
| CC(C)C[C@H](NC(=O)[C@@H](CCCCNC(=O)c1cccnc1)NC(=O)[C@H](Cc1ccc(O)cc1)N(C)C(=O)[C@H](CO)NC(=O)[C@@H](Cc1cccnc1)NC(=O)[C@@H](Cc1ccc(Cl)cc1)NC(=O)[C@@H](Cc1ccc2ccccc2c1)NC(=O)NNC(=O)c1cccnc1)C(=O)N[C@@H](CCCCNC(C)C)C(=O)N1CCC[C@H]1C(=O)N[C@H](C)C(N)=O [Example 37b, N-Nicotinyl-Azagly-D2Nal-D4ClPhe-D3Pal-Ser-NMeTyr-DLys(Nic)-Leu-Lys(Isp)-Pro-DAlaNH2] (Nicotinoyl-[azaGly][d2Nal][dPhe(4-Cl)][d3Pal]S[NMeY][dK](Nicotinoyl)L[Lys(iPr)]P[dA]-NH2) | 0.0158 |
| CC(C)C[C@H](NC(=O)[C@@H](CCCCNC(=O)c1cccnc1)NC(=O)[C@H](Cc1ccc(O)cc1)N(C)C(=O)[C@H](CO)NC(=O)[C@@H](Cc1cccnc1)NC(=O)[C@@H](Cc1ccc(Cl)cc1)NC(=O)[C@@H](Cc1ccc2ccccc2c1)NC(=O)NNC(=O)c1ccccc1O)C(=O)N[C@@H](CCCCNC(C)C)C(=O)N1CCC[C@H]1C(=O)N[C@H](C)C(N)=O [Example 37c, N-Salicyl-Azagly-D2Nal-D4ClPhe-D3Pal-Ser-NMeTyr-DLys(Nic)-Leu-Lys(Isp)-Pro-DAlaNH2] (Salicyloyl-[azaGly][d2Nal][dPhe(4-Cl)][d3Pal]S[NMeY][dK](Nicotinoyl)L[Lys(iPr)]P[dA]-NH2) | 0.0251 |
| CC(C)C[C@H](NC(=O)[C@@H](CCCCNC(=O)c1cccnc1)NC(=O)[C@H](Cc1ccc(O)cc1)N(C)C(=O)[C@H](CO)NC(=O)[C@@H](Cc1cccnc1)NC(=O)[C@@H](Cc1ccc(Cl)cc1)NC(=O)[C@@H](Cc1ccc2ccccc2c1)NC(=O)NNC(=O)c1ccncc1)C(=O)N[C@@H](CCCCNC(C)C)C(=O)N1CCC[C@H]1C(=O)N[C@H](C)C(N)=O [Example 37d, N-Isonicotinyl-Azagly-D2Nal-D4ClPhe-D3Pal-Ser-NMeTyr-DLys(Nic)-Leu-Lys(Isp)-Pro-DAlaNH2] (Isonicotinoyl-[azaGly][d2Nal][dPhe(4-Cl)][d3Pal]S[NMeY][dK](Nicotinoyl)L[Lys(iPr)]P[dA]-NH2) | 0.126 |
| Cc1ccc(S(=O)(=O)NNC(=O)N[C@H](Cc2ccc3ccccc3c2)C(=O)N[C@H](Cc2ccc(Cl)cc2)C(=O)N[C@H](Cc2cccnc2)C(=O)N[C@@H](CO)C(=O)N(C)[C@@H](Cc2ccc(O)cc2)C(=O)N[C@H](CCCCNC(=O)c2cccnc2)C(=O)N[C@@H](CC(C)C)C(=O)N[C@@H](CCCCNC(C)C)C(=O)N2CCC[C@H]2C(=O)N[C@H](C)C(N)=O)cc1 [Example 37e, N-Tosyl-Azagly-D2Nal-D4ClPhe-D3Pal-Ser-NMeTyr-DLys(Nic)-Leu-Lys(Isp)-Pro-DAlaNH2] (X10-[d2Nal][dPhe(4-Cl)][d3Pal]S[NMeY][dK](Nicotinoyl)L[Lys(iPr)]P[dA]-NH2) | 0.0224 |
| CC(C)C[C@H](NC(=O)[C@@H](CCCCNC(=O)c1cccnc1)NC(=O)[C@H](Cc1ccc(O)cc1)N(C)C(=O)[C@H](CO)NC(=O)[C@@H](Cc1cccnc1)NC(=O)[C@@H](Cc1ccc(Cl)cc1)NC(=O)[C@@H](Cc1ccc2ccccc2c1)NC(=O)CNC(=O)[C@@H]1CCCO1)C(=O)N[C@@H](CCCCNC(C)C)C(=O)N1CCC[C@H]1C(=O)N(C)CC(N)=O [Example 39, N-(S)-Tetrahydrofur-2-oyl-Gly-D2Nal-D4ClPhe-D3Pal-Ser-NMeTyr-DLys(Nicotinyl)-Leu-Lys(Isp)-Pro-SarNH2] | 0.0155 |
| Cc1ccc(S(=O)(=O)N[C@H](Cc2ccc3ccccc3c2)C(=O)N[C@H](Cc2ccc(Cl)cc2)C(=O)N[C@H](Cc2cccnc2)C(=O)N[C@@H](CO)C(=O)N(C)[C@@H](Cc2ccc(O)cc2)C(=O)N[C@H](CCCNC(N)=O)C(=O)N[C@@H](CC(C)C)C(=O)N[C@@H](CCCNC(=N)N)C(=O)N2CCC[C@H]2C(=O)N[C@H](C)C(N)=O)cc1 [Example 66, N-Tosyl-D2Nal-D4ClPhe-D3Pal-Ser-NMeTyr-DCit-Leu-Arg-Pro-DAlaNH2] (Tos-[d2Nal][dPhe(4-Cl)][d3Pal]S[NMeY][dCit]LRP[dA]-NH2) | 2.63 |
| CC(C)C[C@H](NC(=O)[C@@H](CCCCNC(=O)c1cccnc1)NC(=O)[C@H](Cc1ccc(O)cc1)N(C)C(=O)[C@H](CO)NC(=O)[C@@H](Cc1cccnc1)NC(=O)[C@@H](Cc1ccc(Cl)cc1)NC(=O)[C@@H](Cc1ccc2ccccc2c1)NC(=O)[C@@H]1CCCO1)C(=O)N[C@@H](CCCCNC(C)C)C(=O)N1CCC[C@H]1C(=O)N[C@H](C)C(N)=O [Example 67, N-(S)-Tetrahydrofur-2-oyl-D2Nal-D4ClPhe-D3Pal-Ser-NMeTyr-DLys(Nic)-Leu-Lys(Isp)-Pro-DAlaNH2] (X1-[d2Nal][dPhe(4-Cl)][d3Pal]S[NMeY][dK](Nicotinoyl)L[Lys(iPr)]P[dA]-NH2) | 0.0251 |
| CC(C)C[C@H](NC(=O)[C@@H](CCCCNC(=O)c1cccnc1)NC(=O)[C@H](Cc1ccc(O)cc1)N(C)C(=O)[C@H](CO)NC(=O)[C@@H](Cc1cccnc1)NC(=O)[C@@H](Cc1ccc(Cl)cc1)NC(=O)[C@@H](Cc1ccc2ccccc2c1)NC(=O)[C@H]1CCCO1)C(=O)N[C@@H](CCCCNC(C)C)C(=O)N1CCC[C@H]1C(=O)N[C@H](C)C(N)=O [Example 68, N-(R)-Tetrahydrofur-2-oyl-D2Nal-D4ClPhe-D3Pal-Ser-NMeTyr-DLys(Nic)-Leu-Lys(Isp)-Pro-DAlaNH2] ({Tetrahydrofuroyl(2R)}-[d2Nal][dPhe(4-Cl)][d3Pal]S[NMeY][dK](Nicotinoyl)L[Lys(iPr)]P[dA]-NH2) | 0.0141 |
| CC(C)C[C@H](NC(=O)[C@@H](CCCCNC(=O)c1cccnc1)NC(=O)[C@H](Cc1ccc(O)cc1)N(C)C(=O)[C@H](CO)NC(=O)[C@@H](Cc1cccnc1)NC(=O)[C@@H](Cc1ccc(Cl)cc1)NC(=O)[C@@H](Cc1ccc2ccccc2c1)NC(=O)[C@H]1CCOC1)C(=O)N[C@@H](CCCCNC(C)C)C(=O)N1CCC[C@H]1C(=O)N[C@H](C)C(N)=O [Example 69, N-(S)-Tetrahydrofur-3-oyl-D2Nal-D4ClPhe-D3Pal-Ser-NMeTyr-DLys(Nic)t-Leu-Lys(Isp)-Pro-DAlaNH2] (X7-[d2Nal][dPhe(4-Cl)][d3Pal]S[NMeY][dK](Nicotinoyl)L[Lys(iPr)]P[dA]-NH2) | 0.02 |
| CC(C)C[C@H](NC(=O)[C@@H](CCCCNC(=O)c1cccnc1)NC(=O)[C@H](Cc1ccc(O)cc1)N(C)C(=O)[C@H](CO)NC(=O)[C@@H](Cc1cccnc1)NC(=O)[C@@H](Cc1ccc(Cl)cc1)NC(=O)[C@@H](Cc1ccc2ccccc2c1)NC(=O)[C@@H]1CCOC1)C(=O)N[C@@H](CCCCNC(C)C)C(=O)N1CCC[C@H]1C(=O)N[C@H](C)C(N)=O [Example 70, N-(R)-Tetrahydrofur-3-oyl-D2Nal-D4ClPhe-D3Pal-Ser-NMeTyr-DLys(Nic)-Leu-Lys(Isp)-Pro-DAlaNH2] (X3-[d2Nal][dPhe(4-Cl)][d3Pal]S[NMeY][dK](Nicotinoyl)L[Lys(iPr)]P[dA]-NH2) | 0.0126 |
